± gives the expanded uncertainty stated by the source.
Settings: 101.33 kPa, Liquid, Vibrating tube method

C1CCCNCC1 [azacycloheptane]
Settings | mass density [kg/m3]
273.16 K | 898.81 ± 0.3
273.66 K | 898.36 ± 0.3
274.16 K | 897.92 ± 0.3
274.66 K | 897.48 ± 0.3
275.16 K | 897.04 ± 0.3
275.66 K | 896.6 ± 0.3
276.16 K | 896.16 ± 0.3
276.66 K | 895.72 ± 0.3
277.16 K | 895.28 ± 0.3
277.66 K | 894.84 ± 0.3
278.16 K | 894.4 ± 0.3
278.66 K | 893.96 ± 0.3
279.16 K | 893.51 ± 0.3
279.66 K | 893.07 ± 0.3
280.16 K | 892.63 ± 0.3
280.66 K | 892.19 ± 0.3
281.16 K | 891.75 ± 0.3
281.66 K | 891.31 ± 0.3
282.16 K | 890.87 ± 0.3
282.66 K | 890.42 ± 0.3
283.16 K | 889.98 ± 0.3
283.66 K | 889.54 ± 0.3
284.16 K | 889.1 ± 0.3
284.66 K | 888.66 ± 0.3
285.15 K | 888.22 ± 0.3
285.66 K | 887.77 ± 0.3
286.16 K | 887.33 ± 0.3
286.66 K | 886.89 ± 0.3
287.16 K | 886.45 ± 0.3
287.66 K | 886 ± 0.3
288.16 K | 885.56 ± 0.3
288.66 K | 885.12 ± 0.3
289.16 K | 884.68 ± 0.3
289.66 K | 884.23 ± 0.3
290.16 K | 883.79 ± 0.3
290.66 K | 883.35 ± 0.3
291.15 K | 882.91 ± 0.3
291.65 K | 882.47 ± 0.3
292.16 K | 882.03 ± 0.3
292.65 K | 881.58 ± 0.3
293.15 K | 881.15 ± 0.3
293.65 K | 880.71 ± 0.3
294.15 K | 880.26 ± 0.3
294.65 K | 879.82 ± 0.3
295.15 K | 879.38 ± 0.3
295.65 K | 878.94 ± 0.3
319.15 K | 858.06 ± 0.3
319.65 K | 857.61 ± 0.3
320.15 K | 857.17 ± 0.3
320.65 K | 856.72 ± 0.3
321.15 K | 856.28 ± 0.3
321.65 K | 855.83 ± 0.3
322.15 K | 855.39 ± 0.3
322.65 K | 854.94 ± 0.3
323.15 K | 854.49 ± 0.3
323.65 K | 854.05 ± 0.3
324.15 K | 853.6 ± 0.3
324.65 K | 853.15 ± 0.3
325.15 K | 852.71 ± 0.3
325.66 K | 852.26 ± 0.3
326.16 K | 851.81 ± 0.3
326.66 K | 851.37 ± 0.3
327.15 K | 850.92 ± 0.3
327.66 K | 850.47 ± 0.3
328.16 K | 850.03 ± 0.3
328.66 K | 849.58 ± 0.3
329.16 K | 849.13 ± 0.3
329.66 K | 848.69 ± 0.3
330.16 K | 848.24 ± 0.3
330.65 K | 847.79 ± 0.3
331.16 K | 847.35 ± 0.3
331.66 K | 846.9 ± 0.3
332.15 K | 846.45 ± 0.3
332.66 K | 846 ± 0.3
333.16 K | 845.55 ± 0.3
333.65 K | 845.11 ± 0.3
334.16 K | 844.66 ± 0.3
334.65 K | 844.21 ± 0.3
335.16 K | 843.76 ± 0.3
335.65 K | 843.31 ± 0.3
336.16 K | 842.86 ± 0.3
336.66 K | 842.42 ± 0.3
337.16 K | 841.96 ± 0.3
337.66 K | 841.52 ± 0.3
338.16 K | 841.07 ± 0.3
338.66 K | 840.62 ± 0.3
339.16 K | 840.17 ± 0.3
339.66 K | 839.72 ± 0.3
340.16 K | 839.27 ± 0.3
340.66 K | 838.82 ± 0.3
341.16 K | 838.37 ± 0.3
341.65 K | 837.92 ± 0.3

Reference: the NIST ThermoML archive (doi:10.1016/j.tca.2008.12.007)
